Measured values taken from ChEMBL document CHEMBL5113505 (Eur J Med Chem, 2022).

Assays:
[1] = biological target: T1, Dual specificity mitogen-activated protein kinase kinase 7 (Homo sapiens) (UniProt O14733); assay: Binding affinity to MKK7 (unknown origin) assessed as percent of control at 100 nM by Kinomescan method relative to control
T1 sequence (whole entry): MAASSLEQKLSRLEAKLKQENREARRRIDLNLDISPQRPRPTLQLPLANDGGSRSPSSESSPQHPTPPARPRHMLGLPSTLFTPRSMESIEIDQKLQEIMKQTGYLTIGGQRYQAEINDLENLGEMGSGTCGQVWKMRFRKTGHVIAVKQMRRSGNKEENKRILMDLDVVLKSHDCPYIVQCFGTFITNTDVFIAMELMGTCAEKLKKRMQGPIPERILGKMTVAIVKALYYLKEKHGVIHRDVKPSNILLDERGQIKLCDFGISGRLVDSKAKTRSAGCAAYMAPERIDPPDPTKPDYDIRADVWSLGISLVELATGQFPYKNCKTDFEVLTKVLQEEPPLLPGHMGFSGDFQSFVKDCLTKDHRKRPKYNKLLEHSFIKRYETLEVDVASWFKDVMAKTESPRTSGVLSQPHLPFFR

[2] = biological target: Mitogen-activated protein kinase kinase kinase 20 (Homo sapiens) (UniProt Q9NYL2); assay: Binding affinity to ZAK (unknown origin) assessed as percent of control at 100 nM by Kinomescan method relative to control
[3] = biological target: T2, Dual specificity mitogen-activated protein kinase kinase 6 (Homo sapiens, UniProt P52564); assay: Inhibition of MKK6 (unknown origin)
T2 sequence (P52564 whole entry): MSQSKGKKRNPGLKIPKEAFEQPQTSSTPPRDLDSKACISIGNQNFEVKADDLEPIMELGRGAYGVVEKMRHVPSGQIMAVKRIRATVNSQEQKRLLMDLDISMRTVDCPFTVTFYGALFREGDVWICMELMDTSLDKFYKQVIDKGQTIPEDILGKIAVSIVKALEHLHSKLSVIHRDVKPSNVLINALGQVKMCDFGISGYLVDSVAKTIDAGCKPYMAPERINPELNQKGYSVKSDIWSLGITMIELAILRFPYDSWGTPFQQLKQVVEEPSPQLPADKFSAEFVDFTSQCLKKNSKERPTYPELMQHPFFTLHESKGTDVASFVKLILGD

Chain of Mitogen-activated protein kinase kinase kinase 20 (Homo sapiens) (Q9NYL2 2-800 limits assumed): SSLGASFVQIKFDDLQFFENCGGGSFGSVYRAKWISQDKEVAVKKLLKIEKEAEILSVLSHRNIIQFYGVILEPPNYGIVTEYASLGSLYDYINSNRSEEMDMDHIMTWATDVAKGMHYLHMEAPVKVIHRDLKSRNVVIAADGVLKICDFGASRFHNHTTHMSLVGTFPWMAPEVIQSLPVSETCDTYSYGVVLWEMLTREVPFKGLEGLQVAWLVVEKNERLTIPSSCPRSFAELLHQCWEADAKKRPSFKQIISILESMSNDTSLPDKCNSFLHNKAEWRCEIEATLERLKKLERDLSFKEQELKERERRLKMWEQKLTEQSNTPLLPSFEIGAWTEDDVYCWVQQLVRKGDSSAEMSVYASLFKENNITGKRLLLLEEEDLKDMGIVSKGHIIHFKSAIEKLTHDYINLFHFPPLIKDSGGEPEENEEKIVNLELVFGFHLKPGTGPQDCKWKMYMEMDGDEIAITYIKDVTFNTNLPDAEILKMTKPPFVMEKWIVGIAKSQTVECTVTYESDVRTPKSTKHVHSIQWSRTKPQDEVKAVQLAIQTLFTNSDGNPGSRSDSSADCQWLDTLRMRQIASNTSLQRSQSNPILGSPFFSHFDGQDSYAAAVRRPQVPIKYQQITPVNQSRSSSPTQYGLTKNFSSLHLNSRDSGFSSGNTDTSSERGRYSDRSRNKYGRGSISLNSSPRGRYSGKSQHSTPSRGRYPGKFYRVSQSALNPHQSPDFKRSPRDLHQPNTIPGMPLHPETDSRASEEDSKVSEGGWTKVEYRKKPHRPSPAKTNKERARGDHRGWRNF

Activity [1] [%]	Activity [2] [%]	IC50 [3] [nM]	Structure (SMILES)
100	100		CCCS(=O)(=O)Nc1ccc(F)c(C(=O)c2ccc3[nH]c4ncc(-c5ccc(S(N)(=O)=O)cc5)cc4c3c2)c1F
100	100		CCCS(=O)(=O)Nc1ccc(F)c(C(=O)c2ccc3[nH]c4ncc(-c5ccc(O)cc5)cc4c3c2)c1F
100	98		CCCS(=O)(=O)Nc1ccc(F)c(C(=O)c2ccc3[nH]c4ncc(-c5ccc(C(=O)O)cc5)cc4c3c2)c1F
98	89		CCCS(=O)(=O)Nc1ccc(F)c(C(=O)c2ccc3[nH]c4ncc(-c5ccc(C(N)=O)cc5)cc4c3c2)c1F
100	100		CCCS(=O)(=O)Nc1ccc(F)c(C(=O)c2ccc3[nH]c4ncc(-c5ccc(Cl)cc5)cc4c3c2)c1F
100	88		CCCS(=O)(=O)Nc1ccc(F)c(C(=O)c2ccc3[nH]c4ncc(-c5ccc(C(=O)NCC(O)CO)cc5)cc4c3c2)c1F (stereo unspecified)

Further lines, the compound ahead of its results:

Structure (SMILES)	Activity [1] [%]	Activity [2] [%]	IC50 [3] [nM]
CCCS(=O)(=O)Nc1ccc(F)c(C(=O)c2n[nH]c3ncc(-c4ccc(S(=O)(=O)NCC(O)CO)cc4)cc23)c1F (stereo unspecified)	100	29	
CCCS(=O)(=O)Nc1ccc(F)c(C(=O)c2ccc3[nH]c4ncc(-c5ccncc5)cc4c3c2)c1F	91	94	
CCCS(=O)(=O)Nc1ccc(F)c(C(=O)c2n[nH]c3ncc(-c4ccc(O)cc4)cc23)c1F		0	
CCCS(=O)(=O)Nc1ccc(F)c(C(=O)c2n[nH]c3ncc(-c4ccc(C(=O)NCC(O)CO)cc4)cc23)c1F (stereo unspecified)	97	2.8	
CCCS(=O)(=O)Nc1ccc(F)c(C(=O)c2ccc3[nH]c4ncc(-c5ccc(S(=O)(=O)NCC(O)CO)cc5)cc4c3c2)c1F (stereo unspecified)	97	100	
CCCS(=O)(=O)Nc1ccc(F)c(C(=O)c2ccc3[nH]c4ncc(-c5ccc(OCC(O)CO)cc5)cc4c3c2)c1F (stereo unspecified)	96	100	
CCCS(=O)(=O)Nc1ccc(F)c(C(=O)c2c[nH]c3ncc(-c4ccc(O)cc4)cc23)c1F	100	0.15	
CCCS(=O)(=O)Nc1ccc(F)c(C(=O)c2ccc3[nH]c4ncc(-c5ccccc5F)cc4c3c2)c1F	100	100	
CCCS(=O)(=O)Nc1ccc(F)c(C(=O)c2c[nH]c3ncc(-c4ccc(OCC(O)CO)cc4)cc23)c1F (stereo unspecified)	99	0.35	
CCCS(=O)(=O)Nc1ccc(F)c(C(=O)c2c[nH]c3ncc(-c4ccc(S(N)(=O)=O)cc4)cc23)c1F	78	94	
CCCS(=O)(=O)Nc1ccc(F)c(C(=O)c2c[nH]c3ncc(-c4cccnc4)cc23)c1F	100	0.6	
NC(=O)c1ccc2[nH]c3ncnc(-c4ccccc4)c3c2c1			< 1000
CCCS(=O)(=O)Nc1ccc(F)c(C(=O)c2ccc3[nH]c4ncc(-c5ccc(-c6nnn[nH]6)cc5)cc4c3c2)c1F	100	100	
